Test results reported in PubChem BioAssay AID330 (DTP/NCI, 2004).
Where “and” joins values, the source holds several entries; their conditions need not be identical. Equal entries are not always repeated. Inconclusive results and toxic doses are left out. The calls were made as follows: active = survival T/C of 150% or more; inactive = T/C below 125% in these data.

Tested on: P388 leukemia ip, CD2F1 mice, survival T/C
Assay: NCI In Vivo Anticancer Drug Screen. Data for tumor model P388 Leukemia (intraperitoneal) in CD2F1 (CDF1) mice
Conditions: endpoint: median survival time, higher = longer survival
Outline: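 Mice carrying the transplanted tumor received test compound or vehicle. Survival was recorded in each group, and the value is the treated-group measurement divided by that of the vehicle-treated control group.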

[1] = dose: 50.0 mg/kg/injection, schedule: Q01DX005 (ip), vehicle: saline with Tween-80
[2] = dose: 100.0 mg/kg/injection, schedule: Q01DX005 (ip), vehicle: saline with Tween-80
[3] = dose: 200.0 mg/kg/injection, schedule: Q01DX005 (ip), vehicle: saline with Tween-80
[4] = dose: 100.0 mg/kg/injection, schedule: Q04DX003 (ip), vehicle: saline
[5] = dose: 200.0 mg/kg/injection, schedule: Q04DX003 (ip), vehicle: saline
[6] = dose: 400.0 mg/kg/injection, schedule: Q04DX003 (ip), vehicle: saline
[7] = dose: 100.0 mg/kg/injection, schedule: Q01DX009 (ip), vehicle: saline with Tween-80
[8] = dose: 200.0 mg/kg/injection, schedule: Q01DX009 (ip), vehicle: saline with Tween-80
[9] = dose: 50.0 mg/kg/injection, schedule: Q01DX009 (ip), vehicle: saline with Tween-80

Measured: T/C

O=NN(c1cccc(C(F)(F)F)c1)c1ccccn1
inactive: dose: 25.0 mg/kg/injection, schedule: Q01DX009 (ip), vehicle: other 100 % of control | dose: 50.0 mg/kg/injection, schedule: Q01DX009 (ip), vehicle: other 108 % of control | dose: 100.0 mg/kg/injection, schedule: Q01DX009 (ip), vehicle: other 106 % of control | dose: 200.0 mg/kg/injection, schedule: Q01DX009 (ip), vehicle: other 104 % of control | dose: 400.0 mg/kg/injection, schedule: Q01DX009 (ip), vehicle: other 108 % of control

Cc1cccc(CCl)n1
inactive: dose: 50.0 mg/kg/injection, schedule: Q01DX009 (ip), vehicle: saline 90 % of control | dose: 100.0 mg/kg/injection, schedule: Q01DX009 (ip), vehicle: saline 107 % of control | dose: 200.0 mg/kg/injection, schedule: Q01DX009 (ip), vehicle: saline 105 % of control

COC(SC)(C(=O)O)c1cc(-c2c(Cl)cccc2Cl)no1 (centres undefined)
inactive: dose: 60.0 mg/kg/injection, schedule: Q01DX005 (ip), vehicle: saline with Tween-80 96 % of control | dose: 120.0 mg/kg/injection, schedule: Q01DX005 (ip), vehicle: saline with Tween-80 93 % of control | dose: 240.0 mg/kg/injection, schedule: Q01DX005 (ip), vehicle: saline with Tween-80 112 % of control

O=C(/C(=C(/[O-])C(F)(F)F)[n+]1ccc2ccccc2c1)C(F)(F)F
inactive: dose: 100.0 mg/kg/injection, schedule: Q01DX001 (ip), vehicle: saline with Tween-80 100 % of control | dose: 200.0 mg/kg/injection, schedule: Q01DX001 (ip), vehicle: saline with Tween-80 100 % of control and 112 % of control | dose: 400.0 mg/kg/injection, schedule: Q01DX001 (ip), vehicle: saline with Tween-80 104 % of control and 97 % of control

CC1(C)CC(=O)CC(C(Cl)(Cl)Cl)O1 (centres undefined)
inactive: [1] 99 % of control | [2] 100 % of control | [3] 98 % of control

Cc1cc(C)c(C#N)c(OCC2CCCO2)n1 (centres undefined)
inactive: [1] 95 % of control | [2] 95 % of control

CC(C)CNC12CN3CN(CN(C3)C1)C2
inactive: [4] 98 % of control | [5] 90 % of control | [6] 92 % of control

COc1ccc2c(c1)c(NCCCCCC#N)cc(C)[n+]2C
inactive: dose: 12.5 mg/kg/injection, schedule: Q01DX005 (ip), vehicle: saline with Tween-80 100 % of control | dose: 25.0 mg/kg/injection, schedule: Q01DX005 (ip), vehicle: saline with Tween-80 100 % of control | [1] 105 % of control

Cc1cc2n(n1)C(c1ccccc1)=C(c1ccccc1)OC2(c1ccccc1)c1ccccc1
inactive: dose: 50.0 mg/kg/injection, schedule: Q04DX002 (ip), vehicle: Klucel (hydroxypropylcellulose) (HPC) 101 % of control | dose: 100.0 mg/kg/injection, schedule: Q04DX002 (ip), vehicle: Klucel (hydroxypropylcellulose) (HPC) 97 % of control | dose: 200.0 mg/kg/injection, schedule: Q04DX002 (ip), vehicle: Klucel (hydroxypropylcellulose) (HPC) 97 % of control | dose: 400.0 mg/kg/injection, schedule: Q04DX002 (ip), vehicle: Klucel (hydroxypropylcellulose) (HPC) 98 % of control

Cc1ccc(-c2cc(Cl)c3cc(S(=O)(=O)F)ccc3n2)cc1
inactive: [7] 104 % of control | dose: 100.0 mg/kg/injection, schedule: Q04DX003 (ip), vehicle: saline with Tween-80 100 % of control | [8] 100 % of control | dose: 200.0 mg/kg/injection, schedule: Q04DX003 (ip), vehicle: saline with Tween-80 100 % of control | dose: 400.0 mg/kg/injection, schedule: Q01DX009 (ip), vehicle: saline with Tween-80 104 % of control | dose: 400.0 mg/kg/injection, schedule: Q04DX003 (ip), vehicle: saline with Tween-80 100 % of control

CC1=Nc2ccc(Cl)cc2N=C(C)C1
inactive: dose: 100.0 mg/kg/injection, schedule: Q01DX001 (ip), vehicle: saline 106 % of control | dose: 200.0 mg/kg/injection, schedule: Q01DX001 (ip), vehicle: saline 107 % of control | dose: 400.0 mg/kg/injection, schedule: Q01DX001 (ip), vehicle: saline 100 % of control

CC(C)COC(=O)NCCCl
inactive: [9] 100 % of control | [7] 97 % of control | [8] 97 % of control

COC(=O)/C=C(\C)NC(=NC(C)(C)C)c1ccccc1
inactive: [9] 98 % of control | [7] 101 % of control | [8] 94 % of control

COc1cccc2c1C(=O)c1c(O)c3c(c(O)c1C2=O)CC(O)(C(C)=O)CC3OC1CC(N/C(C)=C/C(C)=O)C(O)C(C)O1 (centres undefined)
inactive: dose: 3.13 mg/kg/injection, schedule: Q04DX003 (ip), vehicle: distilled water + Tween-80 94 % of control | dose: 6.25 mg/kg/injection, schedule: Q04DX003 (ip), vehicle: distilled water + Tween-80 103 % of control | dose: 12.5 mg/kg/injection, schedule: Q04DX003 (ip), vehicle: distilled water + Tween-80 103 % of control | dose: 25.0 mg/kg/injection, schedule: Q04DX003 (ip), vehicle: distilled water + Tween-80 115 % of control and 119 % of control | dose: 200.0 mg/kg/injection, schedule: Q04DX003 (ip), vehicle: distilled water + Tween-80 102 % of control

COc1c2c(c(OC)c3c1C(=O)c1ccccc1C3=O)CC=CC2
inactive: dose: 1.56 mg/kg/injection, schedule: Q01DX009 (ip), vehicle: water 101 % of control | dose: 3.13 mg/kg/injection, schedule: Q01DX009 (ip), vehicle: water 104 % of control | dose: 6.25 mg/kg/injection, schedule: Q01DX009 (ip), vehicle: water 103 % of control | dose: 12.5 mg/kg/injection, schedule: Q01DX009 (ip), vehicle: water 103 % of control | dose: 25.0 mg/kg/injection, schedule: Q01DX009 (ip), vehicle: water 100 % of control

CC(C)(C)NC=C(C#N)C#N
inactive: [9] 86 % of control

CCN(CC)N=Nc1ccccc1-c1nc(N)c2ccccc2n1
inactive: dose: 12.5 mg/kg/injection, schedule: Q04DX003 (ip), vehicle: Klucel (hydroxypropylcellulose) (HPC) 105 % of control | dose: 25.0 mg/kg/injection, schedule: Q04DX003 (ip), vehicle: Klucel (hydroxypropylcellulose) (HPC) 102 % of control and 103 % of control and 94 % of control | dose: 50.0 mg/kg/injection, schedule: Q04DX003 (ip), vehicle: Klucel (hydroxypropylcellulose) (HPC) 98 % of control and 111 % of control and 91 % of control | dose: 100.0 mg/kg/injection, schedule: Q04DX003 (ip), vehicle: Klucel (hydroxypropylcellulose) (HPC) 102 % of control (2×) and 94 % of control | dose: 200.0 mg/kg/injection, schedule: Q04DX003 (ip), vehicle: Klucel (hydroxypropylcellulose) (HPC) 106 % of control and 119 % of control and 86 % of control

Cc1ccc(S(=O)(=O)ON/N=c2\ccn(C)c3ccccc23)cc1
inactive: [4] 101 % of control | [5] 99 % of control | [6] 99 % of control

COC(=O)C(C)n1c(C(C)C)csc1=S (centres undefined)
inactive: [1] 111 % of control | [2] 110 % of control | [3] 98 % of control

Cc1nnc(Cc2ccco2)c2n[nH]c(C)c12
inactive: dose: 50.0 mg/kg/injection, schedule: Q01DX009 (ip), vehicle: Klucel (hydroxypropylcellulose) (HPC) 96 % of control | dose: 100.0 mg/kg/injection, schedule: Q01DX009 (ip), vehicle: Klucel (hydroxypropylcellulose) (HPC) 99 % of control | dose: 200.0 mg/kg/injection, schedule: Q01DX009 (ip), vehicle: Klucel (hydroxypropylcellulose) (HPC) 100 % of control
